{
  "source": "patent US4313944A",
  "about": "“Cycloheptindoles, compositions and use” (Roussel Uclaf, priority 1980, dated 1982)",
  "key": {"[1]": {"test_system": "nigrostriatal dopaminergic bundle (6-hydroxydopamine unilateral lesion)", "assay": "Rotation behavior after unilateral injury of nigrostriatal bundle", "assay_type": "in vivo, male rats", "settings": "rats, intraperitoneal", "method": "A. Rotation behavior after unilateral injury of nigrostriatal bundle\nThe unilateral lesion was effected with male rats weighing about 220 g by unilateral injection into nigrostriatal dopaminergic bundle of 8 μg of 6-hydroxydopamine in a solution of 2 μg per μl by the method of Ungerstedt [Acta. Physiol. Scand., Vol. 82 (1971), supp. 367, p. 69-93]. In the animals, the direct dopaminergic agonists such as apomorphine administered generally induces a rotating behavior in the contralateral direction to the injured side. The test compounds were administered more than 5 weeks after the lesion and the rats were placed in an automatic rotometer which determine the number of rotations effected by each animal in 2 directions.\nThe products of Examples 1, 2 and 3 were intraperitoneally administered and the product of Example 1 provoked 337±99 contralateral rotations at a dose of 5 mg/kg, product of Example 2 provoked 364±50 contralateral rotations at a dose of 1 mg/kg and the product of Example 3 provoked 657±205 contralateral rotations at a dose of 0.1 mg/kg."}, "dopaminergic receptors": {"biological_target": "T1, dopaminergic receptors (Rattus norvegicus, UniProt P61169)", "T1 construct": "from tissue; host or cells: rat striatum (striated bodies), crude membrane preparation", "T1 sequence (P61169 whole entry)": "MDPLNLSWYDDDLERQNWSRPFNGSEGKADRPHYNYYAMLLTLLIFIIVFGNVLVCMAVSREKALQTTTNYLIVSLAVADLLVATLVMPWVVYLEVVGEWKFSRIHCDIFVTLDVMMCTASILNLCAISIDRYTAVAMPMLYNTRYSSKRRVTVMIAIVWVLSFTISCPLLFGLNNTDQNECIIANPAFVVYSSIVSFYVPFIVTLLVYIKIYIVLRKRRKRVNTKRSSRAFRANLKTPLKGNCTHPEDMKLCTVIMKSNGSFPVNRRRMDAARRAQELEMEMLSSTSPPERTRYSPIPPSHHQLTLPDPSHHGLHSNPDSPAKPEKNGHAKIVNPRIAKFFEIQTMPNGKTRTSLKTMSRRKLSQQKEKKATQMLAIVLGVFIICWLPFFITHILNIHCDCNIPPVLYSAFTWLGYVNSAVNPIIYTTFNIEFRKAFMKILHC", "assay": "Affinity for dopaminergic receptors (inhibition of spiroperidol 3H fixation)", "assay_type": "binding", "settings": "for fixation to dopaminergic receptors (in words): results of Table I; for IC50: spiroperidol 3H, rat striated bodies, 37° C., pH 7.3, 20 minutes, read-out: 50% inhibiting concentration", "method": "B. Affinity for dopaminergic receptors\nThe striated bodies taken from the brains of 6 male rats weighing about 150 g were homogenized at one 20th (weight/volume) in 0.32 M sucrose and the homogenized mixture was centrifuged at 1000 g for 10 minutes at 0° C., the surnageant was centrifuged at 30,000 g for 15 minutes at 4° C. The culot was taken up in 25 ml of buffered Tris HCl 50 mM with a pH of 7.7 and the mixture was centrifuged at 30,000 g for 15 minutes at 4° C. The new culot was taken up in 50 ml of buffered Krebs Tris HCl with a pH of 7.3 and the suspension was preincubated at 37° C. for 10 minutes and was then incubated for 20 minutes in a water bath at 37° C. in the presence of spiroperidol 3H, alone or with an excess of haloperidol or with increasing units of the product being tested. The incubated suspensions were filtered with Whatman GF/C and the filters were washed 3 times with 5 ml of buffered Tris HCl 50 mM. The radioactivity of the filters was measured by liquid scintillation and the curve of percentage of fixation of spiroperidol 3H as a function of concentration of test product was determined."}, "male mice": {"test_system": "male mice", "assay": "Hypobare anoxia study", "assay_type": "in vivo", "settings": "oral, 30 minutes before test, 90 mm Hg", "method": "Groups of 10 male mice weighing about 20 to 22 g were not fed for 5 hours and were placed in a hermetically sealed enclosure with a pressure of 90 mm Hg maintained by a pump to determine the time of their survival. […] The results of Table II show the increase of survival time expressed as a percentage of control animals."}, "mice": {"test_system": "mice", "assay": "Acute toxicity", "assay_type": "in vivo", "settings": "oral, maximum dose which did not cause mortality"}, "[2]": {"test_system": "ulcers in the stomachs of rats", "assay": "Antiulcerous activity (Shay ulcers by ligature of pylore)", "assay_type": "in vivo", "settings": "oral, about 16 hours after treatment", "source_text": "The technique used is described by Shay et al [Gastroenterology, Vol. 5 (1945), p. 43]. Ulcers were induced in the stomachs of rats by ligature of pylore. The animals were anesthesized with ether and a longitudinal incision of about 1 cm was made beneath the sternum, the glandular part of the stomach and the duodenum were taken out and a ligature was placed a few mm below the pylore. The muscular surface was left as it was and the skin was sutured by 2 clamps.\nThe animals received orally immediately after a dispersive or the test product in a volume of 0.5 ml/100 g and were kept without food or water until they were killed by carotidinal bleeding which was about 16 hours after treatment. Before removal of the stomach, a ligature was placed above the […]. The gastric liquid was collected to measure the pH and the stomach was then opened by a large curve, was rinsed with physiological serum and was spead out on millimetric paper for examination with a binocular lens. The gravity of the lesions was macroscopically evaluated on a scale of 0 to 4 for each stomach to determine for each group of rats the average intensity of ulcerations."}},
  "note": "Counter-ions that a name gives are not always drawn.",
  "data": [
    {"smiles": "CN1CCO[C@@H]2c3cccc4[nH]cc(c34)CC[C@H]21", "note": "(relative stereo) [Example 2, (7a-R,S-trans) 8-methyl-4,6,7,7a,8,9,10,11a-octahydro-[1,4]-oxazino-[2',3'-4,5]cyclohept[1,2,3-c,d]indole hydrochloride]", "values": [
      {"measurement": "contralateral rotations", "setting": "[1]; 1 mg/kg", "value": "364±50", "unit": "contralateral rotations"},
      {"measurement": "fixation to dopaminergic receptors (in words)", "setting": "dopaminergic receptors", "value": "do fix dopaminergic receptors"},
      {"measurement": "IC50", "setting": "dopaminergic receptors", "value": 950, "unit": "nM"},
      {"measurement": "% of increase of survival time", "setting": "male mice; dose 5 mg/kg", "value": 30, "unit": "%"},
      {"measurement": "% of increase of survival time", "setting": "male mice; dose 25 mg/kg", "value": 64, "unit": "%"},
      {"measurement": "DL0", "setting": "mice", "value": 100, "unit": "mg/kg"}
    ]},
    {"smiles": "CCCN1CCO[C@@H]2c3cccc4[nH]cc(c34)CC[C@H]21", "note": "(relative stereo) [Example 3, (7a-R,S-trans)-4,6,7,7a,8,9,10,11a-octahydro-8-propyl-[1,4]-oxazino-[2',3'-4,5]cyclohept[1,2,3-c,d]indole hydrochloride]", "values": [
      {"measurement": "contralateral rotations", "setting": "[1]; 0.1 mg/kg", "value": "657±205", "unit": "contralateral rotations"},
      {"measurement": "fixation to dopaminergic receptors (in words)", "setting": "dopaminergic receptors", "value": "do fix dopaminergic receptors"},
      {"measurement": "IC50", "setting": "dopaminergic receptors", "value": 270, "unit": "nM"},
      {"measurement": "% of increase of survival time", "setting": "male mice; dose 1 mg/kg", "value": 3, "unit": "%"},
      {"measurement": "% of increase of survival time", "setting": "male mice; dose 5 mg/kg", "value": 102, "unit": "%"},
      {"measurement": "% of increase of survival time", "setting": "male mice; dose 25 mg/kg", "value": 86, "unit": "%"},
      {"measurement": "% protection against ulceration", "setting": "[2]; dose 5 mg/kg", "value": 51, "unit": "%"},
      {"measurement": "% protection against ulceration", "setting": "[2]; dose 25 mg/kg", "value": 73, "unit": "%"},
      {"measurement": "DL0", "setting": "mice", "value": 100, "unit": "mg/kg"}
    ]},
    {"smiles": "c1cc2c3c(c[nH]c3c1)CC[C@H]1NCCO[C@H]21", "note": "(relative stereo) [Example 1, (7a R,S-trans)-4,6,7,7a,8,9,10,11a-octahydro-[1,4]-oxazino [2',3'-4,5]-cyclohept[1,2,3-c,d]-indole hydrochloride]", "values": [
      {"measurement": "contralateral rotations", "setting": "[1]; 5 mg/kg", "value": "337±99", "unit": "contralateral rotations"},
      {"measurement": "fixation to dopaminergic receptors (in words)", "setting": "dopaminergic receptors", "value": "do fix dopaminergic receptors"},
      {"measurement": "IC50", "setting": "dopaminergic receptors", "value": 10000, "unit": "nM"},
      {"measurement": "% of increase of survival time", "setting": "male mice; dose 2 mg/kg", "value": 14, "unit": "%"},
      {"measurement": "% of increase of survival time", "setting": "male mice; dose 10 mg/kg", "value": 51, "unit": "%"},
      {"measurement": "% of increase of survival time", "setting": "male mice; dose 50 mg/kg", "value": 145, "unit": "%"},
      {"measurement": "DL0", "setting": "mice", "value": 200, "unit": "mg/kg"}
    ]},
    {"smiles": "CCCN1CCO[C@@H]2c3cccc4[nH]c(Br)c(c34)CC[C@H]21", "note": "(relative stereo) [Example 4, (7a-R,S-trans) 5-bromo-4,6,7,7a,8,9,10,11a-octahydro-8-propyl-[1,4]-oxazino-[2',3'-4,5]cyclohept[1,2,3-c,d]indole hydrochloride]", "values": [
      {"measurement": "DL0", "setting": "mice", "value": "> 1000", "unit": "mg/kg"}
    ]},
    {"smiles": "CCCN1CCO[C@@H]2c3cccc4c3c(cn4C)CC[C@H]21", "note": "(relative stereo) [Example 5, (7a-R,S-trans) 4,6,7,7a,8,9,10,11a-octahydro-4-methyl-8-propyl-[1,4]-oxazino-[2',3'-4,5]cyclohept[1,2,3-c,d]indole hydrochloride]", "values": [
      {"measurement": "DL0", "setting": "mice", "value": 200, "unit": "mg/kg"}
    ]}
  ]
}
